# Experimental data taken from patent publication US8883749B2, “Transcription factor inhibitors and related compositions, formulations and methods” (The Ohio State University, priority 2009, dated 2014).
# Where two headings read alike, the source gives them in different places.
# Key:
# [1] = target: T1, Pyk2 (Homo sapiens, UniProt Q14289); test: Kinase profiler assay; assay type: biochemical; conditions: 10 concentrations, 100 μM highest
# T1 construct: purchased Millipore UK Limited (Dundee, UK) or Reaction Biology Corp. (Malvern, Pa.)
# [2] = test system: HPDE, HMEC, HH and WI-38 cells; test: Western blot, cleaved PARP and caspase-3 in normal cells; conditions: LLL12 5 μM or 10 μM, 24 hours
# [3] = target: T2, P13K (P110a/85a) (Homo sapiens, UniProt P42336); test: Kinase profiler assay; assay type: biochemical; conditions: 10 concentrations, 100 μM highest
# T2 construct: purchased Millipore UK Limited (Dundee, UK) or Reaction Biology Corp. (Malvern, Pa.)
# [4] = target: T3, Met (Homo sapiens, UniProt P08581); test: Kinase profiler assay; assay type: biochemical; conditions: 10 concentrations, 100 μM highest
# T3 construct: purchased Millipore UK Limited (Dundee, UK) or Reaction Biology Corp. (Malvern, Pa.)
# [5] = target: T4, TAK1 (Homo sapiens, UniProt O43318); test: Kinase profiler assay; assay type: biochemical; conditions: 10 concentrations, 100 μM highest
# T4 construct: purchased Millipore UK Limited (Dundee, UK) or Reaction Biology Corp. (Malvern, Pa.)
# T4 sequence (O43318 1-303 limits assumed): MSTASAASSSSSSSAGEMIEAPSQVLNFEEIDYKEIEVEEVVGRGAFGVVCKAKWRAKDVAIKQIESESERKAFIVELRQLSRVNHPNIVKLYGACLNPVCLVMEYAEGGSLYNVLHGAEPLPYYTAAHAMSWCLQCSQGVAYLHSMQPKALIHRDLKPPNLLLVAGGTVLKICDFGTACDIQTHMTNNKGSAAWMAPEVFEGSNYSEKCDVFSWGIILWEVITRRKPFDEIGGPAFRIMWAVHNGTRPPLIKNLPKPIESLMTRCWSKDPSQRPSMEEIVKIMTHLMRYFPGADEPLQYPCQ
# T4 sequence (Q15750 437-504 partner limits assumed): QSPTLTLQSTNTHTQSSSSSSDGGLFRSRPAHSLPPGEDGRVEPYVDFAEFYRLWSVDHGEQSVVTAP
# [6] = target: T5, EGFR (Homo sapiens, UniProt P00533); test: Kinase profiler assay; assay type: biochemical; conditions: 10 concentrations, 100 μM highest
# T5 construct: purchased Millipore UK Limited (Dundee, UK) or Reaction Biology Corp. (Malvern, Pa.)
# T5 sequence (P00533 25-1210): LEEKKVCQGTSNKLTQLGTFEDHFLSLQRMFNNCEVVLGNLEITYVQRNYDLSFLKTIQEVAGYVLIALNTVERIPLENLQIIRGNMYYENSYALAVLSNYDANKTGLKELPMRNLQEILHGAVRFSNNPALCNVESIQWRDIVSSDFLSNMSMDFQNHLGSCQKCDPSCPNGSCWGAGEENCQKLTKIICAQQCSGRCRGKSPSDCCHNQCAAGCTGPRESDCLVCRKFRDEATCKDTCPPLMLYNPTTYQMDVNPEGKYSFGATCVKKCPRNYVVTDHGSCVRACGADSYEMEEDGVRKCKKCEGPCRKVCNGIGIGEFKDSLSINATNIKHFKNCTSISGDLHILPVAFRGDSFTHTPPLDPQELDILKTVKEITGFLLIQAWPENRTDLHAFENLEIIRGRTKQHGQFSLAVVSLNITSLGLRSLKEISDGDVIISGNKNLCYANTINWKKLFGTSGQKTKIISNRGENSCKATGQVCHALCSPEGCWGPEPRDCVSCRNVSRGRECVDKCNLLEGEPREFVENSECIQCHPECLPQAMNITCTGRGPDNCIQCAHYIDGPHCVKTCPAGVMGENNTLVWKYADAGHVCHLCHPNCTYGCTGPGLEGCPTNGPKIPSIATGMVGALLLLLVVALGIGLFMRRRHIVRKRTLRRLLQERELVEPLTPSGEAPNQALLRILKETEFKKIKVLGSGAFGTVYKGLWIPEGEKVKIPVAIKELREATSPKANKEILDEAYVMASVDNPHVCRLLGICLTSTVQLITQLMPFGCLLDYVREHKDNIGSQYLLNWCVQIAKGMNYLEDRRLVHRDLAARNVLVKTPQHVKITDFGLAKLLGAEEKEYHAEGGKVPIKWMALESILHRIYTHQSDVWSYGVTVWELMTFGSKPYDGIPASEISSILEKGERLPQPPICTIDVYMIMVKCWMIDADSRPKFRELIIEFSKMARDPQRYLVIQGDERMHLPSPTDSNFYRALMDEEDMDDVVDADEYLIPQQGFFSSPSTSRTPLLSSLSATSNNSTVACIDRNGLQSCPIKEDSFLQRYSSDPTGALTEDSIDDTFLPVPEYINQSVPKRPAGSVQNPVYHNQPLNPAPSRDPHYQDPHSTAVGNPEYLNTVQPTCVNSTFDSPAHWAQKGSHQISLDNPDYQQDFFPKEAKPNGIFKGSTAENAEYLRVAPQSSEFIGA
# [7] = target: T6, CHK1 (Homo sapiens, UniProt O14757); test: Kinase profiler assay; assay type: biochemical; conditions: 10 concentrations, 100 μM highest
# T6 construct: purchased Millipore UK Limited (Dundee, UK) or Reaction Biology Corp. (Malvern, Pa.)
# [8] = target: T7, PAK1 (Homo sapiens, UniProt Q13153); test: Kinase profiler assay; assay type: biochemical; conditions: 10 concentrations, 100 μM highest
# T7 construct: purchased Millipore UK Limited (Dundee, UK) or Reaction Biology Corp. (Malvern, Pa.)
# [9] = target: T8, Erb B2/H ER2 (Homo sapiens, UniProt P04626); test: Kinase profiler assay; assay type: biochemical; conditions: 10 concentrations, 100 μM highest
# T8 construct: purchased Millipore UK Limited (Dundee, UK) or Reaction Biology Corp. (Malvern, Pa.)
# [10] = target: T9, AKT1 (Homo sapiens, UniProt P31749); test: Kinase profiler assay; assay type: biochemical; conditions: 10 concentrations, 100 μM highest
# T9 construct: purchased Millipore UK Limited (Dundee, UK) or Reaction Biology Corp. (Malvern, Pa.)
# T9 sequence (P31749 whole entry): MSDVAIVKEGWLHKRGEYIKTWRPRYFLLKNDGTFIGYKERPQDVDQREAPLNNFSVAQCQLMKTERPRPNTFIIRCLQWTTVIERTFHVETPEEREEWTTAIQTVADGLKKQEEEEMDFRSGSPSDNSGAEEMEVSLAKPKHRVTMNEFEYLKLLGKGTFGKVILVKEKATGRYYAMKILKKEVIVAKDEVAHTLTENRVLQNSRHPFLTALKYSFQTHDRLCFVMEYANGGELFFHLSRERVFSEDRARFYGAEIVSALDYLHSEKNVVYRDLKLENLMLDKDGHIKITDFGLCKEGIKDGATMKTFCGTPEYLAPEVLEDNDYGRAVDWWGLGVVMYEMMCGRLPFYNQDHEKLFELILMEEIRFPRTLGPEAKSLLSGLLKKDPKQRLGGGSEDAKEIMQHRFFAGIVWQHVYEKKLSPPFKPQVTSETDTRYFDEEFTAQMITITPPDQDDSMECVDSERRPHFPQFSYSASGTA
# [11] = target: T10, CDK6/CyclinD1 (Homo sapiens, UniProt Q00534); test: Kinase profiler assay; assay type: biochemical; conditions: 10 concentrations, 100 μM highest
# T10 construct: purchased Millipore UK Limited (Dundee, UK) or Reaction Biology Corp. (Malvern, Pa.)
# [12] = target: T11, Bmx (Homo sapiens, UniProt P51813); test: Kinase profiler assay; assay type: biochemical; conditions: 10 concentrations, 100 μM highest
# T11 construct: purchased Millipore UK Limited (Dundee, UK) or Reaction Biology Corp. (Malvern, Pa.)
# [13] = target: T12, Yes (Homo sapiens, UniProt P07947); test: Kinase profiler assay; assay type: biochemical; conditions: 10 concentrations, 100 μM highest
# T12 construct: purchased Millipore UK Limited (Dundee, UK) or Reaction Biology Corp. (Malvern, Pa.)
# [14] = target: T13, PKC-b (Homo sapiens, UniProt P05771); test: Kinase profiler assay; assay type: biochemical; conditions: 10 concentrations, 100 μM highest
# T13 construct: purchased Millipore UK Limited (Dundee, UK) or Reaction Biology Corp. (Malvern, Pa.)
# [15] = target: T14, P13K (P110b/85a) (Homo sapiens, UniProt P42338); test: Kinase profiler assay; assay type: biochemical; conditions: 10 concentrations, 100 μM highest
# T14 construct: purchased Millipore UK Limited (Dundee, UK) or Reaction Biology Corp. (Malvern, Pa.)
# [16] = target: T15, CDK4/CyclinD1 (Homo sapiens, UniProt P11802); test: Kinase profiler assay; assay type: biochemical; conditions: 10 concentrations, 100 μM highest
# T15 construct: purchased Millipore UK Limited (Dundee, UK) or Reaction Biology Corp. (Malvern, Pa.)
# [17] = target: T16, Syk (Homo sapiens, UniProt P43405); test: Kinase profiler assay; assay type: biochemical; conditions: 10 concentrations, 100 μM highest
# T16 construct: purchased Millipore UK Limited (Dundee, UK) or Reaction Biology Corp. (Malvern, Pa.)
# [18] = target: T17, mTOR (Homo sapiens, UniProt P42345); test: Kinase profiler assay; assay type: biochemical; conditions: 10 concentrations, 100 μM highest
# T17 construct: purchased Millipore UK Limited (Dundee, UK) or Reaction Biology Corp. (Malvern, Pa.)
# [19] = target: T18, c-SRC (Homo sapiens, UniProt P12931); test: Kinase profiler assay; assay type: biochemical; conditions: 10 concentrations, 100 μM highest
# T18 construct: purchased Millipore UK Limited (Dundee, UK) or Reaction Biology Corp. (Malvern, Pa.)
# T18 sequence (P12931 whole entry): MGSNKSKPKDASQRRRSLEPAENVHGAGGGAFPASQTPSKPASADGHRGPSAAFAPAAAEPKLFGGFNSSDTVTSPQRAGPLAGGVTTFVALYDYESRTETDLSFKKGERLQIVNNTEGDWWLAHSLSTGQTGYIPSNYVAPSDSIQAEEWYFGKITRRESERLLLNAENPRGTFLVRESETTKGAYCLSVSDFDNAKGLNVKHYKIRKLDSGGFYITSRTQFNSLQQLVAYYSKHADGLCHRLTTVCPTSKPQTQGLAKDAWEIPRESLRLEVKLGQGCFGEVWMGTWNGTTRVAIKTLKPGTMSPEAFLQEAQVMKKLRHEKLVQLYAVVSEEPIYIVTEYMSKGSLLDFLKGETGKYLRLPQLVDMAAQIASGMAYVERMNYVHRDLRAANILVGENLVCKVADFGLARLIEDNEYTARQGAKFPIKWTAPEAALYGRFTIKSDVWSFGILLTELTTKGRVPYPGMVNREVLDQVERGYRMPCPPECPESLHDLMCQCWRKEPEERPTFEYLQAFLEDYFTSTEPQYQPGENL
# [20] = test system: MDA-MB-231 cells; test: Soft agar colony formation assay; assay type: cell-based, human; conditions: LLL12 1 μM or 5 μM, two weeks
# Experimental: A base 0.6% agar gel with 10% FBS in DMEM was prepared and added to the wells of a 6-well culture dish. […] The cells were maintained at 37° C. and allowed to grow for two weeks. The colonies were stained using MTT dye (100 μL per well). Pictures of the colonies were taken using a Leica MZ 16FA inverted microscope (Leica Microsystems) with a 7.4 Slider Camera (Diagnostic Instruments Inc.). The colonies were scored by counting and numbers were normalized as a percentage of colonies formed in DMSO.
# [21] = target: T19, JAK2 (Homo sapiens, UniProt O60674); test: Kinase profiler assay; assay type: biochemical; conditions: 10 concentrations, 100 μM highest
# T19 construct: purchased Millipore UK Limited (Dundee, UK) or Reaction Biology Corp. (Malvern, Pa.)
# T19 sequence (O60674 whole entry): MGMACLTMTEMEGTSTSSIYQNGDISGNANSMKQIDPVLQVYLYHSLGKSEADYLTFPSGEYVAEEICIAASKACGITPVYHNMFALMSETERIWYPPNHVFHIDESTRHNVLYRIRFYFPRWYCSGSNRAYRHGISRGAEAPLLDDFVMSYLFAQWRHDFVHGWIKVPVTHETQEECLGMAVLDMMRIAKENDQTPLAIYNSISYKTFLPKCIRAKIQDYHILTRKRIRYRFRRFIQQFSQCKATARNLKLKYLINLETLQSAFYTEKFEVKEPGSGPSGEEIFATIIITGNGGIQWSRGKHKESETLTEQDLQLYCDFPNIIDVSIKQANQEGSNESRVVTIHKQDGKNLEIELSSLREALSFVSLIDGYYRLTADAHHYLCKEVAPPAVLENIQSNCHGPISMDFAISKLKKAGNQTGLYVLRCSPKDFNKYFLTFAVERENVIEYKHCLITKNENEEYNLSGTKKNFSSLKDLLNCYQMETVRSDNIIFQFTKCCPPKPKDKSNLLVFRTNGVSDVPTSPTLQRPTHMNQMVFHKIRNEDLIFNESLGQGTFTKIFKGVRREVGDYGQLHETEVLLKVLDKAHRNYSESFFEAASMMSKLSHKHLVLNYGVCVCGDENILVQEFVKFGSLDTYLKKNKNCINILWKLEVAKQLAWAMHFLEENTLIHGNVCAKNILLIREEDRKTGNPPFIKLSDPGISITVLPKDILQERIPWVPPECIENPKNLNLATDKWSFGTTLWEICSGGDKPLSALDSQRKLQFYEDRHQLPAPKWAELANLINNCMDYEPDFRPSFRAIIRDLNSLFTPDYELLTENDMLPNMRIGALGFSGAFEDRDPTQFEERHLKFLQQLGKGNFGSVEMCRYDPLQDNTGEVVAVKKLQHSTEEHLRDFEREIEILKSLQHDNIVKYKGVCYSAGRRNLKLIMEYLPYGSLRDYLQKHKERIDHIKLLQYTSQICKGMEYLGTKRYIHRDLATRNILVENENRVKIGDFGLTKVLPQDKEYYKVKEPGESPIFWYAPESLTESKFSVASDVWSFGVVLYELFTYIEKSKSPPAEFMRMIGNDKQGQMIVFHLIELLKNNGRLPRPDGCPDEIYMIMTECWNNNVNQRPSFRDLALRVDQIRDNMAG
# [22] = target: T20, Fes (Homo sapiens, UniProt P07332); test: Kinase profiler assay; assay type: biochemical; conditions: 10 concentrations, 100 μM highest
# T20 construct: purchased Millipore UK Limited (Dundee, UK) or Reaction Biology Corp. (Malvern, Pa.)
# [23] = target: T21, VEGFR1 (Homo sapiens, UniProt P17948); test: Kinase profiler assay; assay type: biochemical; conditions: 10 concentrations, 100 μM highest
# T21 construct: purchased Millipore UK Limited (Dundee, UK) and Reaction Biology Corp. (Malvern, Pa.)
# T21 sequence (P17948 27-1338): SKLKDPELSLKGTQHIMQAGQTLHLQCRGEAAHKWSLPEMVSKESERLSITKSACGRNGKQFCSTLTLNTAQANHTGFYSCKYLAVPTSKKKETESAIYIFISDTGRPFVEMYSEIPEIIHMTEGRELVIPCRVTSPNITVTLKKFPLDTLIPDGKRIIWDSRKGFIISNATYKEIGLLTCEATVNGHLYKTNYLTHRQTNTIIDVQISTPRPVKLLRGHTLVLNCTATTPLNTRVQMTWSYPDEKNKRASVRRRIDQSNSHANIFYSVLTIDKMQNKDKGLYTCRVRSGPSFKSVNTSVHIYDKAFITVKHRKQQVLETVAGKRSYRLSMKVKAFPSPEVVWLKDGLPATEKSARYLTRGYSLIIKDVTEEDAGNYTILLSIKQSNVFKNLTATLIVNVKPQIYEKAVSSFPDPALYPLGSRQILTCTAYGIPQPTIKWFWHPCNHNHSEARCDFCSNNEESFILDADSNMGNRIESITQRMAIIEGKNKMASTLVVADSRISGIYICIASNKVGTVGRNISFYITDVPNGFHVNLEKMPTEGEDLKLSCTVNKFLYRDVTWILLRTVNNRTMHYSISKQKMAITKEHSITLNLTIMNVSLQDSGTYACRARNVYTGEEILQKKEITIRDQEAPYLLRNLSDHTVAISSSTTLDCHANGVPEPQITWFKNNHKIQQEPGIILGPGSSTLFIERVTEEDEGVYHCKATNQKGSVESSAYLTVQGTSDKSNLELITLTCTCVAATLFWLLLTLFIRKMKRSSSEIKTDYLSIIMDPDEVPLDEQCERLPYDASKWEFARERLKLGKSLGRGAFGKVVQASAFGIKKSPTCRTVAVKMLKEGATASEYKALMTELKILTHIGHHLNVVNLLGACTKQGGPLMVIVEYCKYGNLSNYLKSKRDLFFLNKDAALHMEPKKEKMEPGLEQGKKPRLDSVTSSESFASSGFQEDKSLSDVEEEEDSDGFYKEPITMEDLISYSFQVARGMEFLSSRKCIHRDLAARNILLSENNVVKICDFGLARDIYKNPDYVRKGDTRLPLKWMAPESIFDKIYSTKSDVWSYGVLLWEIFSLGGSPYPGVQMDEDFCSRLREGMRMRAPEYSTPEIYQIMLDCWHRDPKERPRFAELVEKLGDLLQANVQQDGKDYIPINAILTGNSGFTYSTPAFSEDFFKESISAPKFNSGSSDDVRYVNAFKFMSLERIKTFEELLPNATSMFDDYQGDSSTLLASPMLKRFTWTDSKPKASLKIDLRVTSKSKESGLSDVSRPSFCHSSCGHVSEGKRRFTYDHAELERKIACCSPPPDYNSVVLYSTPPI
# [24] = target: T22, PDK1 (Homo sapiens, UniProt O15530); test: Kinase profiler assay; assay type: biochemical; conditions: 10 concentrations, 100 μM highest
# T22 construct: purchased Millipore UK Limited (Dundee, UK) or Reaction Biology Corp. (Malvern, Pa.)
# [25] = target: T23, Fyn (Homo sapiens, UniProt P06241); test: Kinase profiler assay; assay type: biochemical; conditions: 10 concentrations, 100 μM highest
# T23 construct: purchased Millipore UK Limited (Dundee, UK) or Reaction Biology Corp. (Malvern, Pa.)
# [26] = target: T24, C-RAF (Homo sapiens, UniProt P04049); test: Kinase profiler assay; assay type: biochemical; conditions: 10 concentrations, 100 μM highest
# T24 construct: purchased Millipore UK Limited (Dundee, UK) or Reaction Biology Corp. (Malvern, Pa.)
# [27] = target: T25, C-Kit (Homo sapiens, UniProt P10721); test: Kinase profiler assay; assay type: biochemical; conditions: 10 concentrations, 100 μM highest
# T25 construct: purchased Millipore UK Limited (Dundee, UK) or Reaction Biology Corp. (Malvern, Pa.)
# [28] = test system: ALDH^+ subpopulation of MDA-MB-231, SUM159, and SK-BR3 cells; test: MTT cell viability assay of ALDH+ cells; assay type: cell-based, human; conditions: 1 to 10 μmol/L, 72 hours
# Experimental: The ALDH^+ subpopulation of breast cancer cells was seeded in 96-well plates (3,000 cells/well) in triplicates in a serum-free mammary epithelial basal medium. […] MTT (Thiazolyl Blue Tetrazolium Bromide, Sigma-Aldrich) assay was used to determine the cell viability.
# [29] = test system: ALDH^− cells; test: Effects on ALDH- cells; assay type: cell-based, human
# [30] = target: STAT3 phosphorylation in ALDH^+ subpopulation of MDA-MB-231, SUM159, and SK-BR-3 (Homo sapiens, UniProt P40763); test: Western blot of ALDH+ cells; assay type: cell-based; conditions: LLL12 5 μmol/L, 24 hours
# Experimental: ALDH^+ and ALDH^- subpopulations, or ALDH^+/CD44^+/CD24^- and ALDH^-/CD44^+/CD24^+ subpopulations of breast cancer cells were separated by flow cytometer. After sorting, ALDH^+ and ALDH^+/CD44^+/CD24^- stem cells were cultured in serum-free stem cell medium in ultra-low attachment six-well plates (Corning) to maintain cancer stem cell characteristics. ALDH^-, ALDH^-/CD44^+/CD24^+ cells and unseperated cells were cultured in regular medium and replaced with identical stem cell medium for three days before being harvested.
# [31] = test system: ALDH^+ subpopulation of MDA-MB-231, SUM159, and SK-BR-3 breast cancer cells; test: ALDEFLUOR assay, percentage of ALDH+ subpopulation; assay type: cell-based, human; conditions: 10 μM, 24 hours
# Excerpt: The ALDEFLUOR kit (StemCell Technologies) was used to isolate the population with high ALDH enzymatic activity as known. […] For each sample, an aliquot of cells was stained under identical conditions with […] diethylaminobenzaldehyde (DEAB), a specific ALDH inhibitor, as a ALDH^− control. Anti-human PE-CD24 and PE-Cy5-CD44 antibody (BioLegend) were used for CD44/CD24 identification and to separate ALDH^+/CD44^+/CD24^− and ALDH^−/CD44^+/CD24^+ cells when combine with ALDH staining. Analysis was performed using a FACStarPLUS (Becton Dickinion) flow cytometer.
# [32] = test system: ALDH^+ subpopulation of SK-BR-3, MDA-MB-231, and SUM159; test: Tumorsphere culture of ALDH+ cells; assay type: cell-based, human; conditions: 2.5-10 μmol/L, 10 to 15 days
# Experimental: Tumorsphere culture was performed as previously described (4). ALDH^+ and ALDH^+/CD44^+/CD24^− cells were plated as single cells in ultra-low attachment six-well plates at a density of 50,000 viable cells/well. […] Tumorsphere growth was observed under a microscope 10 to 15 days later.
# [33] = test system: MDA-MB-231 breast cancer cells; test: MTT cell viability assay; assay type: cell-based, human; conditions: MDA-MB-231, MTT, 72 hours, 10% FBS, read-out: half-maximal inhibitory concentration (IC50), cell viability
# Experimental: (§1) STAT3 activation is important for tumor cell proliferation and survival.
# (§2) The cells were incubated at 37° C. for a period of 72 hours. 3-(4,5-Dimethylthiazolyl)-2,5-diphenyltetrazolium bromide (MTT) viability assay was done according to manufacturer's protocol (Roche Diagnostics, Mannheim, Germany). […] Half-maximal inhibitory concentrations (IC50) were determined using Sigma Plot 9.0 Software (Systat Software Inc., San Jose, Calif.).
# [34] = test system: HPAC pancreatic cancer cells; test: MTT cell viability assay; assay type: cell-based, human; conditions: 72 hours, 10% FBS, read-out: half-maximal inhibitory concentration (IC50), cell viability
# Experimental: as §1, §2
# [35] = test system: U87 glioblastoma cells; test: MTT cell viability assay; assay type: cell-based, human; conditions: 72 hours, 10% FBS, read-out: half-maximal inhibitory concentration (IC50), cell viability
# Experimental: as §1, §2
# [36] = test system: U373 glioblastoma cells; test: MTT cell viability assay; assay type: cell-based, human; conditions: 72 hours, 10% FBS, read-out: half-maximal inhibitory concentration (IC50), cell viability
# Experimental: as §1, §2
# [37] = test system: PANC-1 pancreatic cancer cells; test: MTT cell viability assay; assay type: cell-based, human; conditions: PANC-1, MTT, 72 hours, 10% FBS, read-out: half-maximal inhibitory concentration (IC50), cell viability
# Experimental: as §1, §2
# [38] = test system: SK-BR-3 breast cancer cells; test: MTT cell viability assay; assay type: cell-based, human; conditions: SK-BR-3, MTT, 72 hours, 10% FBS, read-out: half-maximal inhibitory concentration (IC50), cell viability
# Experimental: as §1, §2
compound,measurement,setting,value
NS(=O)(=O)c1cccc2c1C(=O)c1cccc(O)c1C2=O [LLL12],IC50,[1],> 100 µM
same,cleaved PARP or caspase-3 in cells without elevated STAT3 phosphorylation,[2],did not induce cleaved PARP or caspase-3
same,IC50,[3],> 100 µM
same,IC50,[4],> 100 µM
same,IC50,[5],> 100 µM
same,IC50,[6],> 100 µM
same,IC50,[7],> 100 µM
same,IC50,[8],> 100 µM
same,IC50,[9],> 100 µM
same,IC50,[10],> 100 µM
same,IC50,[11],> 100 µM
same,IC50,[12],> 100 µM
same,IC50,[13],> 100 µM
same,IC50,[14],> 100 µM
same,IC50,[15],> 100 µM
same,IC50,[16],77.9 µM
same,IC50,[17],> 100 µM
same,IC50,[18],> 100 µM
same,IC50,[19],> 100 µM
same,decrease in colony formation compared to the DMSO control,[20],over 95%
same,IC50,[21],> 100 µM
same,IC50,[22],> 100 µM
same,IC50,[23],> 100 µM
same,IC50,[24],> 100 µM
same,IC50,[25],> 100 µM
same,IC50,[26],> 100 µM
same,IC50,[27],> 100 µM
O=[N+]([O-])c1ccc2c(c1)S(=O)(=O)C=C2 [Stattic],cell viability of the ALDH^+ subpopulation,[28],can inhibit cell viability
same,effects on ALDH^− cells,[29],inhibitory effects
same,STAT3 phosphorylation in ALDH^+ cells,[30],reduces STAT3 phosphorylation
same,ALDH^+ subpopulation percentage,[31],decreased the percentage of ALDH^+ subpopulation
same,tumorsphere forming capacity,[32],can inhibit tumorsphere forming capacity
Cc1ccc(S(=O)(=O)OCC(=O)Nc2ccc(C(=O)O)c(O)c2)cc1 [S3I-201],IC50,[33],> 100 µM
same,IC50,[34],> 100 µM
same,IC50,[35],55.1 µM
same,IC50,[36],52.5 µM
same,IC50,[37],> 100 µM
same,IC50,[38],> 100 µM
C[C@H](NC(=O)/C(C#N)=C/c1cccc(Br)n1)c1ccccc1 [WP1066],IC50,[33]; Homo sapiens,7.48 µM
same,IC50,[34]; Homo sapiens,2.52 µM
same,IC50,"[36]; Homo sapiens, U373 MG",5.16 µM
same,IC50,[37]; Homo sapiens,5.12 µM
same,IC50,[38]; Homo sapiens,3.31 µM
